Patent US20260216057A1, “PHARMACEUTICAL COMPOSITIONS FOR HERPES VIRUS” (priority 2022, published 2026)

Tests used:
Plasma protein binding = assay type: in vitro ADME; conditions: read-out: free fraction of the total plasma concentration
[1] = Example 2: pritelivir aqueous suspension SC PK study in rat at lower dose; assay type: in vivo, male Sprague Dawley rats; conditions: aqueous suspension (dihydrate), 10 mg/kg
Description: (§1) The LC-MS methodology and conditions used to analyse pritelivir in plasma samples from the PK studies described in Examples 1 to 5 are provided in Table 1.
(§2) An aqueous suspension of crystalline pritelivir free base (dihydrate) in a 0.9% NaCl+0.5% polysorbate 80 vehicle at a concentration of 3.0 mg/mL was prepared as follows: • 1) Vehicle (0.9% w/w NaCl and 0.5% w/w polysorbate 80) was prepared by dissolving NaCl and polysorbate 80 in water. • 2) Appropriate amount of crystalline pritelivir free base (dihydrate) was weighed and added to the vehicle. • 3) Mixture was stirred for 15 minutes, then vortexed for 1 minute and then sonicated for 10 minutes. • 4) The final dosing formulation was a homogenous white cloudy suspension.
Male SD rats with 230-250 g body weight, ages 6-8 weeks were used for the rat PK study. The animals had free access to food and water. The prepared suspension was administered via subcutaneous injection to each animal group (n=3) with a dosing volume of 3.33 mL/kg to achieve a 10 mg/kg dose.
At each time point, approximately 200 μL whole blood was collected via the jugular vein into K2EDTA tubes. Blood samples were put on to ice and centrifuged at 2000 g for 5 min to obtain plasma sample within 15 minutes. Plasma samples were stored at approximately −70° C. until analyzed by LC-MS.

[2] = Example 3: pritelivir aqueous suspension SC PK study in monkey; assay type: in vivo, male cynomolgus monkeys; conditions: aqueous suspension (dihydrate), 10 mg/kg
Description: as §1, §2
Male non-naïve Cyno Monkeys with −5 kg body weight was used for the monkey PK study. The animals had free access to food and water. The prepared suspension was administered via subcutaneous injection to each animal group (n=3) with a dosing volume of 3.33 mL/kg to achieve a 10 mg/kg dose.
At each time point, approximately 0.5 mL whole blood was collected via the cephalic vein into K2EDTA tubes. Blood samples were put on to ice and centrifuged at 2000 g for 5 min to obtain plasma sample within 15 minutes. Plasma samples were stored at approximately −70° C. until analyzed by LC-MS.

[3] = Example 4: pritelivir aqueous suspension SC PK study in dog; assay type: in vivo, male non-naïve Beagle dogs; conditions: aqueous suspension (dihydrate), 10 mg/kg, following an initial drug burst
Description: as §1
as §2, with “poloxamer 188” for “polysorbate 80”, “5.0” for “3.0”, “poloxamer 188)” for “polysorbate 80)”
Male non-naïve beagles were used for the dog PK study. The animals had free access to food and water. The prepared suspension was administered via subcutaneous injection to each animal group (n=3) with a dosing volume of 2 mL/kg to achieve a 10 mg/kg dose.
At each time point, approximately 0.5 mL of whole blood was collected into K2EDTA tubes. Blood samples were put on ice and centrifuged at 2000 g for 5 min to obtain plasma samples within 15 minutes. Plasma samples were stored at approximately −70° C. until analyzed by LC-MS.

plasma protein = conditions: cited from earlier work
[4] = Example 13: Compound 1 IV PK study in monkey; assay type: in vivo, male cynomolgus monkeys; conditions: male, cynomolgus, plasma, 0.25 mg/kg, read-out: Monkey t1/2 (converted)
Description: The LC-MS methodology and conditions used to analyse Compound 1 in plasma samples from the intra-venous injection PK studies (Example 13) are described in Tables 5 to 7. A 0.25 mg/mL solution of Compound 1 in 10% DMSO, 10% Solutol HS15 and 80% Saline was prepared as follows: • 1) A stock solution of Compound 1 in DMSO was prepared. • 2) An equal volume of the Compound 1 stock solution and Solutol HS15 were combined and mixed. • 3) The above solution was diluted with normal saline to reach the target concentration. The final formulation was a clear solution. Male non-naïve Cyno Monkeys with were used for the monkey PK study. The animals had free access to food and water. The prepared solution was administered via intravenous injection to each animal group (n=3) to achieve a 0.25 mg/kg dose. At each time point, approximately 0.5 mL whole blood was collected into K2EDTA tubes. Blood samples were put on to ice and centrifuged at 2000 g for 5 min to obtain plasma sample within 15 minutes. Plasma samples were stored at approximately −70° C. until analyzed by LC-MS.

[5] = Example 13: Compound 1 IV PK study in dog; assay type: in vivo, male non-naïve Beagle dogs; conditions: male, beagle, plasma, 0.15 mg/kg, read-out: Dog t1/2 (converted)
Description: The LC-MS methodology and conditions used to analyse Compound 1 in plasma samples from the intra-venous injection PK studies (Example 13) are described in Tables 5 to 7. A 0.15 mg/mL solution of Compound 1 in 10% DMSO, 10% Solutol HS15 and 80% Saline was prepared as follows: • 1) A stock solution of Compound 1 in DMSO was prepared. • 2) An equal volume of the Compound 1 stock solution and Solutol HS15 were combined and mixed. • 3) The above solution was diluted with normal saline to reach the target concentration. The final formulation was a clear solution. Male non-naïve beagles were used for the dog PK study. The animals had free access to food and water. […] At each time point, approximately 0.5 mL of whole blood was collected into K2EDTA tubes. Blood samples were put on ice and centrifuged at 2000 g for 5 min to obtain plasma samples within 15 minutes. Plasma samples were stored at approximately −70° C. until analyzed by LC-MS.

Row | Compound | fraction unbound (Plasma protein binding) | prolonged exposure out to (length of the study) [1] | prolonged exposure out to (length of the study) [2] | plasma exposure after SC administration [3] | protein binding (plasma protein) | half-life [4] [h] | half-life [5] [h]
1 | Cc1nc(N(C)C(=O)Cc2ccc(-c3ccccn3)cc2)sc1S(N)(=O)=O [pritelivir, N-methyl-N-(4-methyl-5-sulfamoyl-1,3-thiazol-2-yl)-2-[4-(pyridin-2-yl)phenyl]acetamide] | 0.02 to 0.03 | at least 144 hours | at least 456 hours | prolonged exposure was achieved | 97-98% | – | –
2 | Cc1nc(N2CCCN(c3ccc(-c4cc(F)ccc4F)cc3)C2=O)sc1S(N)(=O)=O [Compound 1, 2-(3-(2′,5′-difluoro-[1,1′-biphenyl]-4-yl)-2-oxotetrahydropyrimidin-1(2H)-yl)-4-methylthiazole-5-sulfonamide] | – | – | – | – | – | 49.6 | 34.9
